These compounds were tested on MDA-MB-231 (assay: normalised response (% of control), CellTiter-Glo; higher = more viable cells (100 = DMSO, 0 = benzethonium chloride kill control)). Details: incubation time: 72 h.
Outline: (§1)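 Each entry is the normalised signal at a single concentration within a series. The series comprised 5 concentrations in 10-fold steps over a compound-specific 10,000-fold range, placed in 384-well plates into which breast cancer cell lines were seeded as 20 µl suspension and incubated 72 h. CellTox Green (485/520 nm) fluorescence and then CellTiter-Glo luminescence were read, with signals normalised per plate to 0.1 % DMSO (100) and a positive kill control (0).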
`CC(=O)c1c(C)c2cnc(Nc3ccc(N4CCNCC4)cn3)nc2n(C2CCCC2)c1=O` [Palbociclib] (10 nM) gave a normalised response of 92.1%.
For `CC[C@@H]1C(=O)OC[C@@H]1Cc1cncn1C` [Pilocarpine] (40 nM), the normalised response was 97.4%.
`COc1cc(F)c(F)c(Nc2ccc(I)cc2F)c1NS(=O)(=O)C1(C[C@H](O)CO)CC1` [Refametinib] (1 nM) gave a normalised response of 100%.
With `COc1cc(F)c(F)c(Nc2ccc(I)cc2F)c1NS(=O)(=O)C1(C[C@H](O)CO)CC1` [Refametinib] (10 nM) the normalised response was 94.4%.
With `CC(C)(C)c1cnc(CSc2cnc(NC(=O)C3CCNCC3)s2)o1` [SNS-032] (10 nM) the normalised response was 96.5%.
Compound `Cn1cnc2c(F)c(Nc3ccc(Br)cc3Cl)c(C(=O)NOCCO)cc21` [Selumetinib] (10 nM) has a normalised response of 97.2%.

These compounds were tested on CAL-51 in the same assay as above. Details: incubation time: 72 h.
Outline: as §1
In the case of `CC1(C)CCC(CN2CCN(c3ccc(C(=O)NS(=O)(=O)c4ccc(NCC5CCOCC5)c([N+](=O)[O-])c4)c(Oc4cnc5[nH]ccc5c4)c3)CC2)=C(c2ccc(Cl)cc2)C1` [ABT-199] (1000 nM), the normalised response is reported as 69.8%.
`CC(=O)N(O)CCCCCNC(=O)CCC(=O)N(O)CCCCCNC(=O)CCC(=O)N(O)CCCCCN` [Deferoxamine] (1000 nM) was tested, and the normalised response was 88.7%.
Compound `C[C@]12CC[C@@H]3c4ccc(OC(=O)N(CCCl)CCCl)cc4CC[C@H]3[C@@H]1CC[C@@H]2O` [Estramustine] (1000 nM) has a normalised response of 80.7%.
With `Cc1ccc([N+](=O)[O-])cc1S(=O)(=O)N(C)/N=C/c1cnc2ccc(Br)cn12` [PIK-75] (1 nM) the normalised response was 73.8%.
`Cc1ccc([N+](=O)[O-])cc1S(=O)(=O)N(C)/N=C/c1cnc2ccc(Br)cn12` [PIK-75] (10 nM) gave a normalised response of 79.1%.
For `CC(=O)c1c(C)c2cnc(Nc3ccc(N4CCNCC4)cn3)nc2n(C2CCCC2)c1=O` [Palbociclib] (1 nM), the normalised response was 118%.
`CC(=O)c1c(C)c2cnc(Nc3ccc(N4CCNCC4)cn3)nc2n(C2CCCC2)c1=O` [Palbociclib] (10 nM) gave a normalised response of 115%.
`CC[C@@H]1C(=O)OC[C@@H]1Cc1cncn1C` [Pilocarpine] (40 nM) showed a normalised response of 127%.
`COc1cc(F)c(F)c(Nc2ccc(I)cc2F)c1NS(=O)(=O)C1(C[C@H](O)CO)CC1` [Refametinib] (1 nM) gave a normalised response of 75.2%.
Work on `COc1cc(F)c(F)c(Nc2ccc(I)cc2F)c1NS(=O)(=O)C1(C[C@H](O)CO)CC1` [Refametinib] (10 nM) yielded a normalised response of 130%.
Work on `CC(C)(C)c1cnc(CSc2cnc(NC(=O)C3CCNCC3)s2)o1` [SNS-032] (10 nM) yielded a normalised response of 65.3%.
Work on `Cn1cnc2c(F)c(Nc3ccc(Br)cc3Cl)c(C(=O)NOCCO)cc21` [Selumetinib] (10 nM) yielded a normalised response of 107%.

Each compound was assayed on BT-549 in the same assay as above. Details: incubation time: 72 h.
Outline: as §1
Work on `CC1(C)CCC(CN2CCN(c3ccc(C(=O)NS(=O)(=O)c4ccc(NCC5CCOCC5)c([N+](=O)[O-])c4)c(Oc4cnc5[nH]ccc5c4)c3)CC2)=C(c2ccc(Cl)cc2)C1` [ABT-199] (1000 nM) yielded a normalised response of 101%.
In the case of `CC(=O)N(O)CCCCCNC(=O)CCC(=O)N(O)CCCCCNC(=O)CCC(=O)N(O)CCCCCN` [Deferoxamine] (1000 nM), the normalised response is reported as 72.7%.
`C[C@]12CC[C@@H]3c4ccc(OC(=O)N(CCCl)CCCl)cc4CC[C@H]3[C@@H]1CC[C@@H]2O` [Estramustine] (1000 nM) was tested, and the normalised response was 104%.
`Cc1ccc([N+](=O)[O-])cc1S(=O)(=O)N(C)/N=C/c1cnc2ccc(Br)cn12` [PIK-75] (1 nM) showed a normalised response of 99%.
Compound `Cc1ccc([N+](=O)[O-])cc1S(=O)(=O)N(C)/N=C/c1cnc2ccc(Br)cn12` [PIK-75] (10 nM) has a normalised response of 101%.
In the case of `CC(=O)c1c(C)c2cnc(Nc3ccc(N4CCNCC4)cn3)nc2n(C2CCCC2)c1=O` [Palbociclib] (1 nM), the normalised response is reported as 100%.
Compound `CC(=O)c1c(C)c2cnc(Nc3ccc(N4CCNCC4)cn3)nc2n(C2CCCC2)c1=O` [Palbociclib] (10 nM) has a normalised response of 100%.
`CC[C@@H]1C(=O)OC[C@@H]1Cc1cncn1C` [Pilocarpine] (40 nM) showed a normalised response of 96.1%.
For `COc1cc(F)c(F)c(Nc2ccc(I)cc2F)c1NS(=O)(=O)C1(C[C@H](O)CO)CC1` [Refametinib] (1 nM), the normalised response was 98.6%.
Work on `COc1cc(F)c(F)c(Nc2ccc(I)cc2F)c1NS(=O)(=O)C1(C[C@H](O)CO)CC1` [Refametinib] (10 nM) yielded a normalised response of 96.5%.
Work on `CC(C)(C)c1cnc(CSc2cnc(NC(=O)C3CCNCC3)s2)o1` [SNS-032] (10 nM) yielded a normalised response of 95.1%.
`Cn1cnc2c(F)c(Nc3ccc(Br)cc3Cl)c(C(=O)NOCCO)cc21` [Selumetinib] (10 nM) gave a normalised response of 99.9%.

These compounds were tested on CAL-85-1 in the same assay as above. Details: incubation time: 72 h.
Outline: as §1
`CC1(C)CCC(CN2CCN(c3ccc(C(=O)NS(=O)(=O)c4ccc(NCC5CCOCC5)c([N+](=O)[O-])c4)c(Oc4cnc5[nH]ccc5c4)c3)CC2)=C(c2ccc(Cl)cc2)C1` [ABT-199] (1000 nM) was tested, and the normalised response was 96.9%.
Work on `CC(=O)N(O)CCCCCNC(=O)CCC(=O)N(O)CCCCCNC(=O)CCC(=O)N(O)CCCCCN` [Deferoxamine] (1000 nM) yielded a normalised response of 102%.
Compound `C[C@]12CC[C@@H]3c4ccc(OC(=O)N(CCCl)CCCl)cc4CC[C@H]3[C@@H]1CC[C@@H]2O` [Estramustine] (1000 nM) has a normalised response of 93.3%.
Compound `Cc1ccc([N+](=O)[O-])cc1S(=O)(=O)N(C)/N=C/c1cnc2ccc(Br)cn12` [PIK-75] (1 nM) has a normalised response of 92.2%.
`Cc1ccc([N+](=O)[O-])cc1S(=O)(=O)N(C)/N=C/c1cnc2ccc(Br)cn12` [PIK-75] (10 nM) was tested, and the normalised response was 89.3%.
